ChEMBL document CHEMBL3997842, “Discovery of novel BTK inhibitors with carboxylic acids” (Bioorg Med Chem Lett, 2017)
Blank lines part the entries; values can stand above or below the molecule they belong to.

Assays:
[1] = target: T1, Tyrosine-protein kinase BTK (Homo sapiens, UniProt Q06187); test: Inhibition of 6-His-tagged recombinant full length BTK (unknown origin) expressed in baculovirus-transfected Sf9 cells using Biotin-EQEDEPEGDYFEWLE-NH2 as substrate preincubated for 60 mins followed by substrate addition measured after 120 mins by LANCE TR-FRET assay
[2] = target: T1, Tyrosine-protein kinase BTK; test: Inhibition of BTK in human PBMC
HeLa = test: Inhibition of [3H]-adenosine uptake in human HeLa cells preincubated for 30 mins followed by [3H]-adenosine addition measured after 60 mins by PMT-based radiometric detection method; format: cell-based; details: 1 h
[3] = Apparent permeability of the compound; format: physicochemical; details: not told
[4] = Oral bioavailability in rat; format: ADME, organism-based; details: in vivo
[5] = target: Voltage-dependent L-type calcium channel subunit alpha-1C (Homo sapiens, UniProt Q13936); test: Inhibition of Cav1.2 (unknown origin)
[6] = target: Sodium channel protein type 5 subunit alpha (Homo sapiens, UniProt Q14524); test: Inhibition of Nav1.5 (unknown origin)
[7] = Clearance in iv dosed rat; format: ADME, organism-based; details: in vivo
[8] = Unbound fraction in rat; format: ADME
[9] = Half life in iv dosed rat; format: ADME, organism-based; details: in vivo
[10] = target: Voltage-gated inwardly rectifying potassium channel KCNH2 (Homo sapiens, UniProt Q12809); test: Inhibition of human ERG
[11] = Clearance in iv dosed dog; format: ADME, organism-based, Canis lupus familiaris; details: in vivo
[12] = Half life in iv dosed dog; format: ADME, organism-based, Canis lupus familiaris; details: in vivo
[13] = Oral bioavailability in dog; format: ADME, organism-based, Canis lupus familiaris; details: in vivo
[14] = Plasma clearance in rat; format: ADME
[15] = Half life in rat; format: ADME; details: in vivo

Sequence of Voltage-dependent L-type calcium channel subunit alpha-1C (Q13936 whole entry): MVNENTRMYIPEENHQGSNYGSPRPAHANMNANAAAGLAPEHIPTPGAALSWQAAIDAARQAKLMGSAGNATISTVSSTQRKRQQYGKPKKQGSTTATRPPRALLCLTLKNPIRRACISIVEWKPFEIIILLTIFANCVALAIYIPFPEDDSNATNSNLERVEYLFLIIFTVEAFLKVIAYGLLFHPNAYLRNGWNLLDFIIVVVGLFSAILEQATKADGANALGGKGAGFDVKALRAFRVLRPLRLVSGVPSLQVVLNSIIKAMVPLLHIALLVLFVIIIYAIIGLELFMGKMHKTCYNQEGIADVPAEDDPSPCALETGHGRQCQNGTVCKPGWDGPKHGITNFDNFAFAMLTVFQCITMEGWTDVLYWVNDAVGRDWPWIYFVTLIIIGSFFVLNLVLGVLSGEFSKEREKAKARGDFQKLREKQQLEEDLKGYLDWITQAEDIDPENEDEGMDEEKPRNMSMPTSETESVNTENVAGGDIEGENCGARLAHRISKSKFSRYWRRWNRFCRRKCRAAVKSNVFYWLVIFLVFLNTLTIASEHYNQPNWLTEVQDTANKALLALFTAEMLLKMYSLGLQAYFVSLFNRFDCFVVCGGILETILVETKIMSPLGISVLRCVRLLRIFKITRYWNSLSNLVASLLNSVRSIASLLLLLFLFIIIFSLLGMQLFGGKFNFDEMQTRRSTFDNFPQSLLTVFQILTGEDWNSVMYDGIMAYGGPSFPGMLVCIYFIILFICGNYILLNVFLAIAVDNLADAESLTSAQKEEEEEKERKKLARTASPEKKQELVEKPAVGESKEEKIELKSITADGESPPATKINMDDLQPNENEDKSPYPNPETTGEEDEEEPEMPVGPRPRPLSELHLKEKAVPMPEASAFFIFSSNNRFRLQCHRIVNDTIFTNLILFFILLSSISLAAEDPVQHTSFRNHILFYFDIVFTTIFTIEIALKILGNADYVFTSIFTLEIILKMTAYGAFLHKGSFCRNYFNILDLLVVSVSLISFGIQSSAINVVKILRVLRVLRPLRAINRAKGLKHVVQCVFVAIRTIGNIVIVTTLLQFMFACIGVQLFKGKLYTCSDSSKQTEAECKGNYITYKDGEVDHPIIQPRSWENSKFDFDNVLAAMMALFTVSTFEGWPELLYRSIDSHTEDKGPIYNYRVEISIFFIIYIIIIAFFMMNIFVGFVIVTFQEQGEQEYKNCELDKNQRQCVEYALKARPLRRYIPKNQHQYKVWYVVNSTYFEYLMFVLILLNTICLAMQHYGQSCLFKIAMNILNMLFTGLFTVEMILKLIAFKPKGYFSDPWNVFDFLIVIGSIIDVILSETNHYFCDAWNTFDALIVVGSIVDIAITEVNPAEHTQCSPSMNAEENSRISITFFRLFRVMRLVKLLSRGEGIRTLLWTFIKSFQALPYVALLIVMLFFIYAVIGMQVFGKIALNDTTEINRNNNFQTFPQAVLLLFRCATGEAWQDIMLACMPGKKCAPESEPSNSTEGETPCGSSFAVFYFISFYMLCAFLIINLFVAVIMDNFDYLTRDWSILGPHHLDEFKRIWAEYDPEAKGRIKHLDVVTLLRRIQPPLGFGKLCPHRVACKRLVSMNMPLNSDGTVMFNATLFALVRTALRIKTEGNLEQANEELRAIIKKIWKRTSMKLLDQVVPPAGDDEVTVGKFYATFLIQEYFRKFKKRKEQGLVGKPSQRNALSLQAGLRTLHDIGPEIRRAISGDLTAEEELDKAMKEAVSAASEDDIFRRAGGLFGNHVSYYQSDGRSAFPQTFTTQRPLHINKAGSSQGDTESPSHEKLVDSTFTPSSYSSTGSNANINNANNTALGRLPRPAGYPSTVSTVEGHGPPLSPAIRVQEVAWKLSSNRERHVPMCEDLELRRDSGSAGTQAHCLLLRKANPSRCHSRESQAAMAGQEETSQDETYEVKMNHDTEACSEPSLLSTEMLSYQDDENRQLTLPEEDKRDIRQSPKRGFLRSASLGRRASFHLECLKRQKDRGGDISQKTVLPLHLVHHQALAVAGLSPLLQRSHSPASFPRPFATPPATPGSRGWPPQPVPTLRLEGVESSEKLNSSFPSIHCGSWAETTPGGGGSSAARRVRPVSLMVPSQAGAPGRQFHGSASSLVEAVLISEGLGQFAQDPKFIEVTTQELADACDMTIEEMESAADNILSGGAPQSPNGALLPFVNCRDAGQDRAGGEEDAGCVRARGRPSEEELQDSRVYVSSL
Sequence of Sodium channel protein type 5 subunit alpha (Q14524 whole entry): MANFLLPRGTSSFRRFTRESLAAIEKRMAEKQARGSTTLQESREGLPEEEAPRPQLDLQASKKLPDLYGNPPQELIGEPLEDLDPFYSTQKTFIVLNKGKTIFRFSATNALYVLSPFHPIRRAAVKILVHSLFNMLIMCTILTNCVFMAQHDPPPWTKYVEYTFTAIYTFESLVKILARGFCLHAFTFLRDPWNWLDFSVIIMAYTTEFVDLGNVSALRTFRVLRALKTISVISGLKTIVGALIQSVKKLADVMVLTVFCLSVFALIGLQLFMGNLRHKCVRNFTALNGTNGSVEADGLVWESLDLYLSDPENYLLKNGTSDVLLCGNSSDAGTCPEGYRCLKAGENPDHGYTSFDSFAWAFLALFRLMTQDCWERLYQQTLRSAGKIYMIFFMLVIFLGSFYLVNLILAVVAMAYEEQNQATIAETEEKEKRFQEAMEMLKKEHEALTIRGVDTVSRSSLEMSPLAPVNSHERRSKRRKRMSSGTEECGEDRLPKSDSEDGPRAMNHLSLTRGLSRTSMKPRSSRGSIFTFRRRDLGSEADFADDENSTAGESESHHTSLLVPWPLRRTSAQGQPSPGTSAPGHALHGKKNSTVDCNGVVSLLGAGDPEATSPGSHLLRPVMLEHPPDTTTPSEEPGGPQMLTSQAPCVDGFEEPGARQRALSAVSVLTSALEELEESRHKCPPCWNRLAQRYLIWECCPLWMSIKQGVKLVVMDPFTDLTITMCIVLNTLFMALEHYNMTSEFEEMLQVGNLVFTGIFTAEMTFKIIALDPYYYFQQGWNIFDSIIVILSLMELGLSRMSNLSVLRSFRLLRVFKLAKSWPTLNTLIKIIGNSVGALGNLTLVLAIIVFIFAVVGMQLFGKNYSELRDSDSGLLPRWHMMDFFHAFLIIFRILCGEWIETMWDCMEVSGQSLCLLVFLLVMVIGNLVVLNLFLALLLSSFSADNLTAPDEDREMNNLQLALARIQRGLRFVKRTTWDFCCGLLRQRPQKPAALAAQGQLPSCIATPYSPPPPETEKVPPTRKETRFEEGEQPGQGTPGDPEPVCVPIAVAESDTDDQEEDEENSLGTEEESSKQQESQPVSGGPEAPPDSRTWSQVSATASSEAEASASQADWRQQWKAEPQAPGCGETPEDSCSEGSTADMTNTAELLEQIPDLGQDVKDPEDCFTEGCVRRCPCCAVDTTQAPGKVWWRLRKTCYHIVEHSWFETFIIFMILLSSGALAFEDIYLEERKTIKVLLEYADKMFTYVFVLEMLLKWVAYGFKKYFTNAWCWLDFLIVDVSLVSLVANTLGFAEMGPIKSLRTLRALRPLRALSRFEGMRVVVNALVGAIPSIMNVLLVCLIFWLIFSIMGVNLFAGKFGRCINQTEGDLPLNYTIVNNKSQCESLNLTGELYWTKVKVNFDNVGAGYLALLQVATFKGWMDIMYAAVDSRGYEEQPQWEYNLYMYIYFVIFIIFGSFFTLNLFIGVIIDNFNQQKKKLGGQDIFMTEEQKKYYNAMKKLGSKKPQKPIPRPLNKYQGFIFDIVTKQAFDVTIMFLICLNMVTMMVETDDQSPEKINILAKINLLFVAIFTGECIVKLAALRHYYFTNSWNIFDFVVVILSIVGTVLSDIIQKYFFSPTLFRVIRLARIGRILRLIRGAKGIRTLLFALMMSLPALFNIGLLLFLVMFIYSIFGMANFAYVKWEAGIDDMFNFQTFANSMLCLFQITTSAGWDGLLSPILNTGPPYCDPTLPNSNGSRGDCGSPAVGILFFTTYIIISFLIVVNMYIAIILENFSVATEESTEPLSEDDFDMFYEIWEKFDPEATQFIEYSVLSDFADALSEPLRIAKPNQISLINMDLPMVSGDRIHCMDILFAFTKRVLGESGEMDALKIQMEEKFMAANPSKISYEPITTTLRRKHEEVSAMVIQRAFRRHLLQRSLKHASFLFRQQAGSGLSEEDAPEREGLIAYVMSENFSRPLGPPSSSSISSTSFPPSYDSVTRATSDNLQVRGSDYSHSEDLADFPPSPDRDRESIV
T1 sequence (Q06187 whole entry): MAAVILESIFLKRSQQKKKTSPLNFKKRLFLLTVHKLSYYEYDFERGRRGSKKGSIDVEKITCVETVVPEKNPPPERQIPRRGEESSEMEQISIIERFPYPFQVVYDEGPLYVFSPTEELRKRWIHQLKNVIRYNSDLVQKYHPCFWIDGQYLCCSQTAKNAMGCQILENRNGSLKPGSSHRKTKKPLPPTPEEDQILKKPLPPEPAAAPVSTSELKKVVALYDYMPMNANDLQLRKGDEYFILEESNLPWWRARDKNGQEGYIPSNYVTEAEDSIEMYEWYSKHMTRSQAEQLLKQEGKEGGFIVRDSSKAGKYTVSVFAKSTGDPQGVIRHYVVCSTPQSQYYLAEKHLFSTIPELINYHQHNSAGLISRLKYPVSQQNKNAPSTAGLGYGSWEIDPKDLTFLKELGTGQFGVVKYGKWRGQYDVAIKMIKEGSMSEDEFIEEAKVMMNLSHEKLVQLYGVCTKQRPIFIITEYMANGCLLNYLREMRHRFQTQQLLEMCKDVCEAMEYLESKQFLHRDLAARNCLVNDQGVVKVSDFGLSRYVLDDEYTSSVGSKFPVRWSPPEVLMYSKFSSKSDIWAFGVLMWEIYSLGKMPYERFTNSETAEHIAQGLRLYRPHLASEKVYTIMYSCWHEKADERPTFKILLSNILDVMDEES

IC50 [1]: 0.0002 µM | IC50 [2]: 0.005 µM | Inhibitory concentration (HeLa): 308 nM
Structure (SMILES): Nc1nccn2c(C34CCC(C(=O)O)(CC3)CC4)nc(-c3ccc(C(=O)Nc4cc(C(F)(F)F)ccn4)cc3)c12

Inhibitory concentration (HeLa): 44 nM
Structure (SMILES): Nc1nccn2c([C@@H]3CCC[C@H](c4n[nH]c(=O)o4)C3)nc(-c3ccc(C(=O)Nc4cc(C(F)(F)F)ccn4)cc3)c12

Inhibitory concentration (HeLa): > 10000 nM | Papp [3]: 3 ×10⁻⁶ cm/s
Structure (SMILES): Nc1nccn2c([C@@H]3CCC[C@H](c4nn[nH]n4)C3)nc(-c3ccc(C(=O)Nc4cc(C(F)(F)F)ccn4)cc3)c12

IC50 [1]: 0.0002 µM | IC50 [2]: 0.009 µM | Inhibitory concentration (HeLa): 459 nM
Structure (SMILES): Nc1nccn2c1c(-c1ccc(C(=O)Nc3cc(C(F)(F)F)ccn3)cc1)nc2[C@]12CC[C@](C(=O)O)(CC1)C2

IC50 [1]: 0.0002 µM | IC50 [2]: 0.008 µM | bioavailability [4]: 39% | clearance [7]: 2 mL/min/kg | Inhibitory concentration (HeLa): 1699 nM | fraction unbound [8]: 0.001 | half-life [9]: 2.4 h
Structure (SMILES): C[C@]1(C(=O)O)CC[C@@](C)(c2nc(-c3ccc(C(=O)Nc4cc(C(F)(F)F)ccn4)cc3)c3c(N)nccn23)C1
IC50 [5]: 19 µM | IC50 [6]: > 30 µM

Inhibitory concentration (HeLa): 45 nM
Structure (SMILES): NC(=O)[C@H]1CCC[C@@H](c2nc(-c3ccc(C(=O)Nc4cc(C(F)(F)F)ccn4)cc3)c3c(N)nccn23)C1

Inhibitory concentration (HeLa): > 10000 nM
Structure (SMILES): Nc1nccn2c1c(-c1ccc(C(=O)Nc3cc(C(F)(F)F)ccn3)cc1)nc2[C@H]1CC[C@@H](C(=O)O)CC1

IC50 [1]: 0.0001 µM | IC50 [2]: 0.018 µM | bioavailability [4]: 22% | clearance [7]: 9 mL/min/kg | Inhibitory concentration (HeLa): 6073 nM | fraction unbound [8]: 0.002 | half-life [9]: 3 h
Structure (SMILES): C[C@]1(C(=O)O)CCC[C@@](C)(c2nc(-c3ccc(C(=O)Nc4cc(C(F)(F)F)ccn4)cc3)c3c(N)nccn23)C1
IC50 [5]: 13 µM | IC50 [6]: > 30 µM

Inhibitory concentration (HeLa): 812 nM
Structure (SMILES): Nc1nccn2c(C34C5C6C3C3C4C5C63C(=O)O)nc(-c3ccc(C(=O)Nc4cc(C(F)(F)F)ccn4)cc3F)c12 (stereo unspecified)

IC50 [1]: 0.001 µM | IC50 [2]: 0.017 µM | bioavailability [4]: 75% | clearance [7]: 13 mL/min/kg | Inhibitory concentration (HeLa): 1452 nM | fraction unbound [8]: 0.001 | half-life [9]: 5 h | clearance [11]: 13 mL/min/kg | half-life [12]: 5.8 h | bioavailability [13]: 77%
Structure (SMILES): C[C@]1(C(=O)O)CC[C@@](C)(c2nc(-c3ccc(C(=O)Nc4cc(C(F)(F)F)ccn4)cc3)c3c(N)nccn32)CC1
IC50 [10]: > 60 µM | IC50 [5]: 15 µM | IC50 [6]: > 30 µM

IC50 [1]: 0.0003 µM | IC50 [2]: 0.006 µM | Inhibitory concentration (HeLa): 274 nM
Structure (SMILES): Nc1nccn2c1c(-c1ccc(C(=O)Nc3cc(C(F)(F)F)ccn3)cc1)nc2[C@]12CCC[C@](C(=O)O)(CC1)CC2

Inhibitory concentration (HeLa): 155 nM | Papp [3]: 26 ×10⁻⁶ cm/s
Structure (SMILES): Cn1nnnc1[C@H]1CCC[C@@H](c2nc(-c3ccc(C(=O)Nc4cc(C(F)(F)F)ccn4)cc3)c3c(N)nccn23)C1

Inhibitory concentration (HeLa): 150 nM | Papp [3]: 28 ×10⁻⁶ cm/s
Structure (SMILES): Cn1nnc([C@H]2CCC[C@@H](c3nc(-c4ccc(C(=O)Nc5cc(C(F)(F)F)ccn5)cc4)c4c(N)nccn34)C2)n1

Inhibitory concentration (HeLa): 5396 nM
Structure (SMILES): C[C@]1(C(=O)O)CC[C@@H](c2nc(-c3ccc(C(=O)Nc4cc(C(F)(F)F)ccn4)cc3)c3c(N)nccn23)C1

clearance [14]: 7.9 mL/min/kg | half-life [15]: 1.2 h | bioavailability [4]: 2% | Papp [3]: 7 ×10⁻⁶ cm/s
Structure (SMILES): Nc1nccn2c([C@@H]3CCC[C@H](C(=O)O)C3)nc(-c3ccc(C(=O)Nc4cc(C(F)(F)F)ccn4)cc3)c12
IC50 [10]: > 60 µM | IC50 [5]: > 30 µM | IC50 [6]: > 30 µM

IC50 [1]: 0.0004 µM | IC50 [2]: 0.067 µM | Inhibitory concentration (HeLa): 6476 nM
Structure (SMILES): Nc1nccn2c(C34CC(C(=O)O)(C3)C4)nc(-c3ccc(C(=O)Nc4cc(C(F)(F)F)ccn4)cc3)c12

Inhibitory concentration (HeLa): 9086 nM
Structure (SMILES): Nc1nccn2c([C@@H]3CCC[C@H](c4noc(=O)[nH]4)C3)nc(-c3ccc(C(=O)Nc4cc(C(F)(F)F)ccn4)cc3)c12

Inhibitory concentration (HeLa): 2492 nM
Structure (SMILES): CC1(C(=O)O)CCC(c2nc(-c3ccc(C(=O)Nc4cc(C(F)(F)F)ccn4)cc3)c3c(N)nccn23)CC1 (stereo unspecified)

IC50 [1]: 0.0004 µM | IC50 [2]: 0.02 µM | bioavailability [4]: 44% | clearance [7]: 2.8 mL/min/kg | Inhibitory concentration (HeLa): 4010 nM | fraction unbound [8]: 0.003 | half-life [9]: 2 h
Structure (SMILES): CC(C)[C@@]1(C(=O)O)CC[C@@](C)(c2nc(-c3ccc(C(=O)Nc4cc(C(F)(F)F)ccn4)cc3)c3c(N)nccn23)C1
IC50 [10]: > 60 µM | IC50 [5]: 8 µM | IC50 [6]: > 30 µM

clearance [14]: 139 mL/min/kg | half-life [15]: 0.8 h | bioavailability [4]: 30%
Structure (SMILES): CCOc1cc(C(=O)Nc2cc(C(F)(F)F)ccn2)ccc1-c1nc(C23CCC(C(=O)O)(CC2)CC3)n2ccnc(N)c12
IC50 [5]: 15 µM | IC50 [6]: > 30 µM

Inhibitory concentration (HeLa): 1927 nM
Structure (SMILES): Nc1nccn2c([C@H]3C[C@@H]4[C@H](C3)[C@H]4C(=O)O)nc(-c3ccc(C(=O)Nc4cc(C(F)(F)F)ccn4)cc3)c12

Inhibitory concentration (HeLa): > 10000 nM
Structure (SMILES): Nc1nccn2c1c(-c1ccc(C(=O)Nc3cc(C(F)(F)F)ccn3)cc1)nc2[C@H]1CC[C@H](C(=O)O)CC1

Inhibitory concentration (HeLa): 168 nM | Papp [3]: 20 ×10⁻⁶ cm/s
Structure (SMILES): Nc1nccn2c([C@@H]3CCC[C@H](c4nnc[nH]4)C3)nc(-c3ccc(C(=O)Nc4cc(C(F)(F)F)ccn4)cc3)c12

Inhibitory concentration (HeLa): 110 nM
Structure (SMILES): C[C@H]1CC[C@@H](c2nc(-c3ccc(C(=O)Nc4cc(C(F)(F)F)ccn4)cc3F)c3c(N)nccn23)CN1C(=O)C1CC1

Inhibitory concentration (HeLa): 5600 nM | Papp [3]: 2 ×10⁻⁶ cm/s
Structure (SMILES): CS(=O)(=O)NC(=O)[C@H]1CCC[C@@H](c2nc(-c3ccc(C(=O)Nc4cc(C(F)(F)F)ccn4)cc3)c3c(N)nccn23)C1

fraction unbound [8]: 0.002
Structure (SMILES): C[C@]1(C(=O)O)CCC[C@@H](c2nc(-c3ccc(C(=O)Nc4cc(C(F)(F)F)ccn4)cc3)c3c(N)nccn23)C1 (racemic)
